Values joined by “and” are separate entries in the source; they are usually repeats but may differ in a detail not shown here. Identical values can stand only once.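 Where inhibition never reached the appropriate level, the endpoint shown equals the highest concentration tested. Otherwise, values were interpolated linearly from a five-concentration, 48-hour dose response in 96-well plates. The concentration for 50% growth inhibition is given as GI50.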 Active and inactive are the calls of the source. Cut-off read from the data, not from the text of the source: active = GI50 up to about 1.1 µM and inactive = higher. Where a SMILES comes first, the peptide text is derived from it. [ ]: non-standard residue; d: D form. The star is where a group is joined. Phe(4-NO2) = N[CH](Cc1ccc([N+](=O)[O-])cc1)C(=O)O; Boc = CC(C)(C)OC(=O)*; OtBu = CC(C)(C)O*
Columns and labels:
Assay in all cases: growth of human tumour cells (NCI), 48 h
[1] = test system: KM12
[2] = test system: DLD-1
[3] = test system: A549
[4] = test system: SN12C
[5] = test system: SK-MEL-5
[6] = test system: K562
[7] = test system: UO-31
[8] = test system: ACHN
[9] = test system: NCI-H23
[10] = test system: UACC-257
[11] = test system: RPMI-8226
[12] = test system: OVCAR-4
[13] = test system: A498
[14] = test system: OVCAR-3
[15] = test system: NCI-H226
[16] = test system: HL-60
[17] = test system: RXF 393
[18] = test system: DMS-114
[19] = test system: DMS-273
[20] = test system: MDA-N

| SMILES | GI50 [1] | GI50 [2] | GI50 [3] | GI50 [4] | GI50 [5] | GI50 [6] | GI50 [7] | GI50 [8] | GI50 [9] | GI50 [10] | GI50 [11] | GI50 [12] | GI50 [13] | GI50 [14] | GI50 [15] | GI50 [16] | GI50 [17] | GI50 [18] | GI50 [19] | GI50 [20] |
| --- | --- | --- | --- | --- | --- | --- | --- | --- | --- | --- | --- | --- | --- | --- | --- | --- | --- | --- | --- | --- |
| O=C1C2C=CC(C2)C(c2ccc(O)cc2)N1O (stereo not given) | > 100 µM (inactive) | > 100 µM (inactive) | > 100 µM (inactive) | > 100 µM (inactive) | > 100 µM (inactive) | > 100 µM (inactive) | > 100 µM (inactive) | > 100 µM (inactive) | > 100 µM (inactive) | > 100 µM (inactive) | > 100 µM (inactive) | > 100 µM (inactive) | > 100 µM (inactive) | > 100 µM (inactive) | > 100 µM (inactive) | > 100 µM (inactive) |  |  |  |  |
| Cc1cnc2c(c1)C(=O)C1=C(OC(C)(C)CC1O)C2=O (stereo not given) | > 100 µM (inactive) | 16 µM (inactive) | 16.2 µM (inactive) | 15.6 µM (inactive) | 14 µM (inactive) | 16.8 µM (inactive) | 15.7 µM (inactive) | 15.2 µM (inactive) | 10.7 µM (inactive) | 13.3 µM (inactive) | 13.6 µM (inactive) | 12.8 µM (inactive) |  | 11.1 µM (inactive) | 20.1 µM (inactive) | 4.45 µM (inactive) | 15.5 µM (inactive) | 10.4 µM (inactive) | 11.9 µM (inactive) |  |
| CSc1ccc(C2OC(=O)c3ccccc32)c2ccccc12 (stereo not given) | 78 µM (inactive) | 86.5 µM (inactive) | 81.3 µM (inactive) | > 100 µM (inactive) | 58.2 µM (inactive) | 31 µM (inactive) | 39.7 µM (inactive) | 88.5 µM (inactive) |  | > 100 µM (inactive) | 47.2 µM (inactive) | 70.5 µM (inactive) |  |  |  | 61.2 µM (inactive) | > 100 µM (inactive) | 74.3 µM (inactive) |  |  |
| O=C(/C=C1\Nc2ccccc2C(=O)N1c1ccc(Cl)cc1)c1ccncc1 | > 100 µM (inactive) | > 100 µM (inactive) | > 100 µM (inactive) | > 100 µM (inactive) | > 100 µM (inactive) | > 100 µM (inactive) | > 100 µM (inactive) | > 100 µM (inactive) | > 100 µM (inactive) | > 100 µM (inactive) | > 100 µM (inactive) | > 100 µM (inactive) | 75.7 µM (inactive) | > 100 µM (inactive) | > 100 µM (inactive) | > 100 µM (inactive) |  | > 100 µM (inactive) |  |  |
| CC(C)(C)c1cc(C(=O)O)c2c(c1)C(=O)OC2(c1ccccc1)c1ccccc1C(=O)O (stereo not given) | > 100 µM (inactive) | > 100 µM (inactive) | > 100 µM (inactive) | > 100 µM (inactive) |  | > 100 µM (inactive) | > 100 µM (inactive) | 77.3 µM (inactive) | > 100 µM (inactive) | > 100 µM (inactive) |  | 78.3 µM (inactive) |  | > 100 µM (inactive) | 23.9 µM (inactive) | > 100 µM (inactive) | > 100 µM (inactive) | > 100 µM (inactive) | > 100 µM (inactive) |  |
| Cn1c(O)c(C(=O)Nc2ccc([N+](=O)[O-])cc2)c(=O)n(C)c1=S | 2.49 µM (inactive) | 3.7 µM (inactive) | 3.42 µM (inactive) | 3.13 µM (inactive) | 0.776 µM (active) | 3.53 µM (inactive) | 1.54 µM (inactive) | 2.48 µM (inactive) | 1.42 µM (inactive) | 2.32 µM (inactive) | 3.15 µM (inactive) | 2.71 µM (inactive) | 0.499 µM (active) | 2.37 µM (inactive) | 4.33 µM (inactive) | 2.25 µM (inactive) | 1.12 µM (active) | 2.27 µM (inactive) |  |  |
| Cn1cnc([N+](=O)[O-])c1Sc1nc2ccccc2s1 | 15.1 µM (inactive) | 5.07 µM (inactive) | 10.2 µM (inactive) | 4.33 µM (inactive) | 13.7 µM (inactive) |  | 9.57 µM (inactive) | 15 µM (inactive) | 10.9 µM (inactive) |  | 12.5 µM (inactive) | 3.01 µM (inactive) |  | 3.7 µM (inactive) | 9.84 µM (inactive) |  | 2.15 µM (inactive) | 3.9 µM (inactive) | 1.36 µM (inactive) |  |
| CNC(=S)NNC(=O)c1c(C)nc2sccn12 | > 100 µM (inactive) | > 100 µM (inactive) | > 100 µM (inactive) | > 100 µM (inactive) | > 100 µM (inactive) | > 100 µM (inactive) |  | > 100 µM (inactive) | > 100 µM (inactive) | > 100 µM (inactive) |  |  |  | > 100 µM (inactive) | > 100 µM (inactive) | > 100 µM (inactive) | > 100 µM (inactive) |  | > 100 µM (inactive) |  |
| O=[N+]([O-])c1c(/C=N/Nc2ccccc2)oc(-c2ccc3c(c2)OCO3)c1-c1ccc2c(c1)OCO2 |  | 5.73 µM (inactive) | 11 µM (inactive) | 64.3 µM (inactive) |  | 3.06 µM (inactive) |  | 4.28 µM (inactive) | 51.2 µM (inactive) | 30.3 µM (inactive) | 5.78 µM (inactive) | 21.5 µM (inactive) |  | 5.77 µM (inactive) | > 100 µM (inactive) | 4.57 µM (inactive) | 36.5 µM (inactive) | 5.02 µM (inactive) |  |  |
| CCC(=O)OC[n+]1ccc2c(C)c3[nH]c4ccccc4c3c(C)c2c1 | 0.483 µM (active) | 0.229 µM (active) | 0.272 µM (active) | 0.401 µM (active) | 1.25 µM (inactive) | 0.618 µM (active) |  | 0.289 µM (active) | 0.675 µM (active) | 1.37 µM (inactive) | 0.284 µM (active) | 0.505 µM (active) | 1.21 µM (inactive) | 1.33 µM (inactive) | 0.735 µM (active) | 2.45 µM (inactive) | 0.552 µM (active) | 0.608 µM (active) |  |  |
| COc1ccc(CNc2cnc3cc(N)ccc3n2)cc1 | > 100 µM (inactive) |  | > 100 µM (inactive) | > 100 µM (inactive) | > 100 µM (inactive) | > 100 µM (inactive) | 26.4 µM (inactive) | > 100 µM (inactive) | > 100 µM (inactive) |  | 42.8 µM (inactive) | > 100 µM (inactive) |  | > 100 µM (inactive) | 80.7 µM (inactive) | 77.1 µM (inactive) | > 100 µM (inactive) | > 100 µM (inactive) | > 100 µM (inactive) |  |
| Cc1ccc(S(=O)(=O)ON=C2CC(c3ccccc3)N(C)C(c3ccccc3)C2)cc1 (stereo not given) | 16.4 µM (inactive) |  | 23.2 µM (inactive) and 20.6 µM (inactive) | 23.6 µM (inactive) | 17.4 µM (inactive) and 16.3 µM (inactive) |  | 15.6 µM (inactive) and 16.9 µM (inactive) | 19.8 µM (inactive) | 25.2 µM (inactive) and 19.9 µM (inactive) | 18.9 µM (inactive) and 19.3 µM (inactive) | 18.3 µM (inactive) | 18.7 µM (inactive) and 17.4 µM (inactive) | 24.3 µM (inactive) | 19.5 µM (inactive) and 20 µM (inactive) | 28.7 µM (inactive) and 23.6 µM (inactive) |  | 20.2 µM (inactive) and 18.8 µM (inactive) | 14.7 µM (inactive) | 20.7 µM (inactive) and 19.5 µM (inactive) |  |
| Cc1n[nH]c(=O)n1C1CCCC1 | > 100 µM (inactive) |  | > 100 µM (inactive) | > 100 µM (inactive) | > 100 µM (inactive) | > 100 µM (inactive) | > 100 µM (inactive) | > 100 µM (inactive) | > 100 µM (inactive) | > 100 µM (inactive) | > 100 µM (inactive) | > 100 µM (inactive) | > 100 µM (inactive) | > 100 µM (inactive) | > 100 µM (inactive) | > 100 µM (inactive) | > 100 µM (inactive) |  |  | > 100 µM (inactive) |
| O=C(OCC1CO1)c1cccs1 (stereo not given) | > 100 µM (inactive) | > 100 µM (inactive) | > 100 µM (inactive) | > 100 µM (inactive) | > 100 µM (inactive) | > 100 µM (inactive) | > 100 µM (inactive) | > 100 µM (inactive) | > 100 µM (inactive) | > 100 µM (inactive) | > 100 µM (inactive) | > 100 µM (inactive) |  | > 100 µM (inactive) |  | > 100 µM (inactive) | > 100 µM (inactive) | > 100 µM (inactive) | > 100 µM (inactive) |  |
| CC(=O)OCCN1c2ccccc2Sc2cnccc21 | 0.067 µM (active) |  | > 10 µM (inactive) | > 10 µM (inactive) | > 10 µM (inactive) | > 10 µM (inactive) | > 10 µM (inactive) | > 10 µM (inactive) | > 10 µM (inactive) | > 10 µM (inactive) | > 10 µM (inactive) | > 10 µM (inactive) | > 10 µM (inactive) | > 10 µM (inactive) | > 10 µM (inactive) | > 10 µM (inactive) | > 10 µM (inactive) |  |  | > 10 µM (inactive) |
| COC(=O)C(Cc1ccc([N+](=O)[O-])cc1)NC(=O)C(CC(=O)OC(C)(C)C)NC(=O)OC(C)(C)C (stereo not given) (Boc-Asp(OtBu)-[Phe(4-NO2)]-OMe; configuration not given here) | > 100 µM (inactive) |  | > 100 µM (inactive) | > 100 µM (inactive) | > 100 µM (inactive) | > 100 µM (inactive) | 14.3 µM (inactive) | > 100 µM (inactive) | > 100 µM (inactive) | > 100 µM (inactive) | 40 µM (inactive) | 38.4 µM (inactive) | > 100 µM (inactive) | > 100 µM (inactive) | > 100 µM (inactive) | > 100 µM (inactive) | > 100 µM (inactive) |  |  | > 100 µM (inactive) |
| c1ccc(C2=NN3CN(N2)c2ccccc2OCCCOc2ccccc23)cc1 | > 100 µM (inactive) |  | > 100 µM (inactive) | > 100 µM (inactive) | > 100 µM (inactive) | > 100 µM (inactive) | 77.4 µM (inactive) | > 100 µM (inactive) | > 100 µM (inactive) |  | 19.1 µM (inactive) | 77.6 µM (inactive) |  | > 100 µM (inactive) | > 100 µM (inactive) | 48.9 µM (inactive) | > 100 µM (inactive) | > 100 µM (inactive) | > 100 µM (inactive) |  |
